The subject of experiment [1] is NIH3T3. The experiment can be described thus: Antiproliferative activity against mouse NIH/3T3 cells. Type of experiment: functional, cell-based.
The target of experiment [2] is T1, Cyclin-dependent kinases regulatory subunit 1/S-phase kinase-associated protein 2 (Homo sapiens, UniProt P61024+Q13309). The experiment in a line: Inhibition of N-terminal fluorescent monomeric Azami Green-tagged SKP2 (unknown origin)/CKS1 (unknown origin) expressed in Escherichia coli DH10 protein-protein interaction assessed as reduction in p27 ubiquitylation at 0.4 to 3.2 uM relative to control.
Target sequence in this assay (P61024 2-79 limits assumed): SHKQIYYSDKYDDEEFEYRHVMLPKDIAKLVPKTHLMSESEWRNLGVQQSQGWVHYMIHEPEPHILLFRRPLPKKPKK
Target sequence in this assay (Q13309 whole entry partner): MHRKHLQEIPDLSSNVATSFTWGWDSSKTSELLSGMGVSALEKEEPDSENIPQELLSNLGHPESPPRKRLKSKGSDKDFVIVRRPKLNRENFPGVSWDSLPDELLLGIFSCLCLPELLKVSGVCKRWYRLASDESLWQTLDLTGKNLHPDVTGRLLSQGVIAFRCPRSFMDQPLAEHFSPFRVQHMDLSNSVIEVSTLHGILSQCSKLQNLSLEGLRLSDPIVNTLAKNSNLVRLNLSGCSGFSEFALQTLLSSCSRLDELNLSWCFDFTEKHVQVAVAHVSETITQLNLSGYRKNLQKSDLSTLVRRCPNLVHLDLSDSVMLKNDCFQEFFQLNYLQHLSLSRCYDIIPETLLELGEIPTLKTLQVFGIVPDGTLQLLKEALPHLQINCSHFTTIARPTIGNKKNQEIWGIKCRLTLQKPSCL

Experiment [3] relates to HeLa. The experiment in a line: Antiproliferative activity against human HeLa cells. Type of experiment: functional, cell-based.
Experiment [4] can be described thus: Antiproliferative activity against mouse tsFT210 cells. Type of experiment: functional, cell-based.
For experiment [5], the target named is T1, Cyclin-dependent kinases regulatory subunit 1/S-phase kinase-associated protein 2. The experiment in a line: Inhibition of GST-tagged SKP2 (unknown origin)/His6-tagged CKS1 (unknown origin) expressed in Escherichia coli protein-protein interaction after 1 hr by Alpha screen assay. Background: Bead proximity is the source of the signal in Alpha formats.
Target sequence in this assay (P61024 whole entry): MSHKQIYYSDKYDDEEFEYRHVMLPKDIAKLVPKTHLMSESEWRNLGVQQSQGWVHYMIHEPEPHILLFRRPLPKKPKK
Target sequence in this assay (Q13309 whole entry): as the sequence (Q13309 whole entry partner) above

For experiment [6], the system named is JeKo-1. The experiment in a line: Antiproliferative activity against human JeKo1 cells. It counts as functional, cell-based.
Experiment [7] is described as follows: Antiproliferative activity against human ECC1 cells. As to conditions: ECC-1. Type of experiment: functional, cell-based.
Experiment [8] concerns S-phase kinase-associated protein 1/S-phase kinase-associated protein 2 (Homo sapiens). The experiment can be described thus: Inhibition of SKP1/SKP2 protein-protein interaction in human MM1S cells assessed as reduction in p27 ubiquitylation at 25 uM after 16 hrs by PAGE analysis relative to control.
Experiment [9] deals with U-266. The experiment can be described thus: Antiproliferative activity against human U266 cells. Type of experiment: functional, cell-based.
Experiment [10] has as its system RPMI-8226. The experiment in a line: Antiproliferative activity against human RPMI8226 cells. Type of experiment: functional, cell-based.
Experiment [11] concerns S-phase kinase-associated protein 1/S-phase kinase-associated protein 2 (Homo sapiens). The experiment in a line: Inhibition of SKP1/SKP2 protein-protein interaction in human MM1S cells assessed as reduction in p27 ubiquitylation at 20 uM after 16 hrs by PAGE analysis relative to control.
The nature of experiment [12]: Antiproliferative activity against human RPMI8226/LR5 cells. Type of experiment: functional, cell-based. As to conditions: RPMI-8226.
The nature of experiment [13]: Antiproliferative activity against human ANBL-6 cells. It counts as functional, cell-based.
In experiment [14] the test system is S-phase kinase-associated protein 1/S-phase kinase-associated protein 2 (Homo sapiens). The experiment can be described thus: Inhibition of SKP1/SKP2 protein-protein interaction in human MM1S cells assessed as reduction in p27 ubiquitylation at 10 uM after 16 hrs by PAGE analysis relative to control.
The nature of experiment [15]: Antiproliferative activity against human MM1R cells. Type of experiment: functional, cell-based. As to conditions: MM.1R.
Experiment [16] is described as follows: Antiproliferative activity against human U266/LR6 cells. As to conditions: U-266. It counts as functional, cell-based.
In experiment [17] the test system is RPMI-8226. The experiment in a line: Antiproliferative activity against doxorubicin-resistant human RPMI8226 cells. It counts as functional, cell-based.
Experiment [18] is described as follows: Antiproliferative activity against human ANBL6/B7R cells. Type of experiment: functional, cell-based. As to conditions: ANBL-6.
Experiment [19] concerns MM1.S. The experiment in a line: Antiproliferative activity against human MM1S cells. Type of experiment: functional, cell-based.

Usually IC50 stands for the concentration that gives 50% inhibition. A word on the inhibition: it is how much of the control response was suppressed. For orientation: EC50 means the concentration needed to bring the measured effect to its halfway point. Lower therefore signals an effect from little substance.

With `C=C(C)C(=O)O[C@H]1CC(=C)[C@@H]2C[C@H](O)[C@](O)(CCl)[C@@H]2[C@H]2OC(=O)C(=C)[C@@H]21`, the values for the IC50 in [1], in experiment [3] and in experiment [4] were 12.7 µM, 3.2 µM and 1.6 µM, respectively. In [2], the inhibition fell in the range of 70 to 80%.

`O=C(OC12CC3CC(CC(C3)C1)C2)c1ccc(NCc2cc(O)ccc2O)cc1` gave an IC50 in experiment [5] of 36 µM.

Turning to `COC(=O)C1=C(C)N(c2ccc(Br)cc2)C(=O)/C1=C\c1ccccc1O`, the EC50 in [6] is 9.3 µM; in experiment [7], 14.3 µM.

For `CN(C)c1ccc(CNCCC(Cc2ccccc2)C2CCOC(C)(C)C2)cc1` (configuration not stated), the inhibition in experiment [8] is 51%; in experiment [11], 44%; in experiment [14] it was 8%. For the same compound, the IC50 in experiment [9] is 4.2 µM; in experiment [10] it was 8 µM; in experiment [12], 6.3 µM; in [13] it was 10 µM; in [15], 5.4 µM; in experiment [16] it was 4.3 µM. Further, the IC50 in experiment [17] turned out to be 8.5 µM; in experiment [18] it was 8 µM; in experiment [19], 5.4 µM.

`CN(C)c1ccc(C(=C2C=CC(=[N+](C)C)C=C2)c2ccc(N(C)C)cc2)cc1` [GENTIAN VIOLET]: the IC50 is 5.3 µM in experiment [1], 0.4 µM in experiment [3] and 0.6 µM in experiment [4].

(Values after ChEMBL document CHEMBL4257523, “Chemical probes of Skp2-mediated p27 ubiquitylation and degradation” (Medchemcomm, 2018).)
